Source: US5093331A, “Labdane derivatives, a process for their preparation, and their use as medicaments” (Hoechst Aktiengesellschaft, priority 1987, dated 1992)
In brackets after ≈: the same amount, converted by molar mass. Structures can show the parent of a compound that is named as a salt.

tested on: Blood pressure in cats; test: Test for an antihypertensive effect: blood pressure in cats; type: in vivo; conditions: 0.1 mg/kg i.v., anesthetized cats, formula Ia
Protocol: Test for an antihypertensive effect
Cats of both sexes and weighing 3 to 4 kg are anesthetized with ether and maintained under chloralose anesthesia (70 mg/kg i.v.). Cannulas are placed in the femoral artery and femoral vein to record the blood pressure and to administer the medicament, respectively. The blood pressure in the femoral artery is recorded via a Statham P 23 Db pressure transducer on a Nihon-Kohden pen recorder for physiological purposes. The compound to be tested is dissolved in distilled water and administered intravenously. The fall in blood pressure and the duration of the effect lowering blood pressure are noted.

SMILES | duration (of fall of B.P.) [min] | fall of B.P. [mm Hg]
C=C[C@@]1(C)CC(=O)[C@]2(O)[C@@]3(C)[C@@H](O)CCC(C)(C)[C@@H]3[C@H](O)[C@H](OC(=O)COC(=O)CN(C(C)C)C(C)C)[C@@]2(C)O1 [1 NH[CH(CH3)2]2] | 125 | 25
C=C[C@@]1(C)CC(=O)[C@]2(O)[C@@]3(C)[C@@H](O)CCC(C)(C)[C@@H]3[C@H](O)[C@H](OC(=O)COC(=O)CN)[C@@]2(C)O1 [1 NH2, 8,13-Epoxy-7β-(2-glycinyloxyacetoxy)-1α,6β,9α-trihydroxylabd-14-en-11-one monohydrochloride] | 120 | 20
C=C[C@@]1(C)CC(=O)[C@]2(O)[C@@]3(C)[C@@H](O)CCC(C)(C)[C@@H]3[C@H](O)[C@H](OC(=O)COC(=O)CN3CCN(C)CC3)[C@@]2(C)O1 [drawing 61] | 40 | 20
C=C[C@@]1(C)CC(=O)[C@]2(O)[C@@]3(C)[C@@H](O)CCC(C)(C)[C@@H]3[C@H](O)[C@H](OC(=O)COC(=O)CN3CCOCC3)[C@@]2(C)O1 [drawing 62] | 60 | 30
C=C[C@@]1(C)CC(=O)[C@]2(O)[C@@]3(C)[C@@H](O)CCC(C)(C)[C@@H]3[C@H](O)[C@H](OC(=O)COC(=O)CN3CCCCC3)[C@@]2(C)O1 | 40 | 25

same assay, conditions: 0.3 mg/kg i.v., anesthetized cats, formula Ia

SMILES | duration (of fall of B.P.) [min] | fall of B.P. [mm Hg]
C=C[C@@]1(C)CC(=O)[C@]2(O)[C@@]3(C)[C@@H](O)CCC(C)(C)[C@@H]3[C@H](O)[C@H](OC(=O)COC(=O)CNC(=O)OC(C)(C)C)[C@@]2(C)O1 [1 NHBoC] | 35 | 30
C=C[C@@]1(C)CC(=O)[C@]2(O)[C@@]3(C)[C@@H](O)CCC(C)(C)[C@@H]3[C@H](O)[C@H](OC(=O)COC(=O)CN3CCN(C(=O)OCC)CC3)[C@@]2(C)O1 [drawing 63] | 30 | 35

same assay, conditions: 1 mg/kg i.v., anesthetized cats, formula Ia

SMILES | duration (of fall of B.P.) [min] | fall of B.P. [mm Hg]
C=C[C@@]1(C)CC(=O)[C@]2(O)[C@@]3(C)[C@@H](O)CCC(C)(C)[C@@H]3[C@H](O)[C@H](OC(=O)COC(=O)CNc3cc(OC)c(OC)c(OC)c3)[C@@]2(C)O1 [drawing 64] | 60 | 80
C=C[C@@]1(C)CC(=O)[C@]2(O)[C@@]3(C)[C@@H](O)CCC(C)(C)[C@@H]3[C@H](O)[C@H](OC(=O)COC(=O)CN3CCC(c4ccccc4)CC3)[C@@]2(C)O1 [drawing 60] | 45 | 60

tested on: Guineapig atrium; test: Positive inotropic effect, isolated electrically stimulated guineapig atrium; type: cell-based; conditions: Cavia porcellus, Table III, formula Ia, 32° C., contractility recorded 7 to 10 minutes
Protocol: Positive inotropic effect
The following method was used:
Guineapigs of both sexes and weighing 400 g are sacrificed, and the heart is removed and placed in Ringer's solution at room temperature. Both the left and the right atria are then isolated and fixed in an organ holder, and the preparation is placed in a bath containing Ringer's solution and maintained at a temperature of 32° C. A mixture of 95% O2 and 5% CO2 is then bubbled through the organ bath and the atrium is electrically stimulated. The compound to be tested is dissolved in water to give a solution of known concentration and is added to the bath. The contractility of the atrium is recorded for 7 to 10 minutes on a Nihon Kohden 4-channel pen recorder with an isometric strain gage. The activity is expressed on the basis of the resulting data as the EC50.
The results obtained in this model are indicated for representative compounds of the invention in Tables III and IV which follow: […]

SMILES | EC50 [mg/L]
C=C[C@@]1(C)CC(=O)[C@]2(O)[C@@]3(C)[C@@H](O)CCC(C)(C)[C@@H]3[C@H](O)[C@H](OC(=O)COC(=O)CN3CCC(c4ccccc4)CC3)[C@@]2(C)O1 [drawing 49] | 0.18 (≈ 0.287 µM)
C=C[C@@]1(C)CC(=O)[C@]2(O)[C@@]3(C)[C@@H](O)CCC(C)(C)[C@@H]3[C@H](O)[C@H](OC(=O)COC(=O)CN(C(C)C)C(C)C)[C@@]2(C)O1 [1 N[CH(CH3)2]2, 8,13-Epoxy-7β-(2-diisopropylaminoacetoxyacetoxy)-1α, 6β,9α-trihydroxylabd-14-en-11-one hydrochloride sesquihydrate] | 1
C=C[C@@]1(C)CC(=O)[C@]2(O)[C@@]3(C)[C@@H](O)CCC(C)(C)[C@@H]3[C@H](O)[C@H](OC(=O)COC(=O)CN3CCN(C)CC3)[C@@]2(C)O1 [drawing 50] | 0.1 (≈ 0.176 µM)
C=C[C@@]1(C)CC(=O)[C@]2(O)[C@@]3(C)[C@@H](O)CCC(C)(C)[C@@H]3[C@H](O)[C@H](OC(=O)COC(=O)CN)[C@@]2(C)O1 [1 NH2, 8,13-Epoxy-7β-(2-glycinyloxyacetoxy)-1α,6β,9α-trihydroxylabd-14-en-11-one monohydrochloride] | 0.1
C=C[C@@]1(C)CC(=O)[C@]2(O)[C@@]3(C)[C@@H](O)CCC(C)(C)[C@@H]3[C@H](O)[C@H](OC(=O)COC(=O)CN3CCOCC3)[C@@]2(C)O1 [drawing 51] | 1.42 (≈ 2.56 µM)
C=C[C@@]1(C)CC(=O)[C@]2(O)[C@@]3(C)[C@@H](O)CCC(C)(C)[C@@H]3[C@H](O)[C@H](OC(=O)COC(=O)CNc3cc(OC)c(OC)c(OC)c3)[C@@]2(C)O1 [drawing 48] | 0.545 (≈ 0.839 µM)
C=C[C@@]1(C)CC(=O)[C@]2(O)[C@@]3(C)[C@@H](O)CCC(C)(C)[C@@H]3[C@H](O)[C@H](OC(=O)COC(=O)CN(CC)CC)[C@@]2(C)O1 [1 N(C2 H5)2, 8,13-Epoxy-7β-(2-N,N-diethylglycinyloxyacetoxy)-1α,6β,9α-trihydroxylabd-14-en-11-one hydrochloride] | 0.03
C=C[C@@]1(C)CC(=O)[C@]2(O)[C@@]3(C)[C@@H](O)CCC(C)(C)[C@@H]3[C@H](O)[C@H](OC(=O)COC(=O)CN3CCN(C(=O)OCC)CC3)[C@@]2(C)O1 [drawing 52] | > 1

same assay, conditions: Cavia porcellus, Table IV, formula Ib, 32° C., contractility recorded 7 to 10 minutes

SMILES | EC50 [mg/L]
C=C[C@@]1(C)CC(=O)[C@]2(O)[C@@]3(C)[C@@H](O)CCC(C)(C)[C@@H]3[C@H](OC(=O)COC(=O)CN(CC)CC)[C@H](OC(C)=O)[C@@]2(C)O1 [1 OAc N(C2 H5)2, 7β-Acetoxy-6β-(2-N,N-diethylaminoacetoxyacetoxy)-8,13-epoxy-1α,9α-dihydroxylabd-14-en-11-one hydrochloride sesquihydrate] | 0.03
C=C[C@@]1(C)CC(=O)[C@]2(O)[C@@]3(C)[C@@H](O)CCC(C)(C)[C@@H]3[C@H](OC(=O)COC(=O)CN3CCOCC3)[C@H](OC(C)=O)[C@@]2(C)O1 | 0.072 (≈ 0.121 µM)
C=C[C@@]1(C)CC(=O)[C@]2(O)[C@@]3(C)[C@@H](O)CCC(C)(C)[C@@H]3[C@H](OC(=O)COC(=O)CCN)[C@H](OC(C)=O)[C@@]2(C)O1 [2 OAc NH2] | 0.02 (≈ 0.0371 µM)
C=C[C@@]1(C)CC(=O)[C@]2(O)[C@@]3(C)[C@@H](O)CCC(C)(C)[C@@H]3[C@H](OC(=O)COC(=O)CN)[C@H](OC(C)=O)[C@@]2(C)O1 [1 OAc NH2, 7β-acetoxy-8,13-epoxy-6β-(2-glycinyloxyacetoxy)-1α,9α-dihydroxylabd-14-en-11-one hydrochloride] | 0.008
C=C[C@@]1(C)CC(=O)[C@]2(O)[C@@]3(C)[C@@H](O)CCC(C)(C)[C@@H]3[C@H](OC(=O)COC(=O)CN(C(C)C)C(C)C)[C@H](OC(C)=O)[C@@]2(C)O1 [1 OAc N[CH(CH3)2]2, 7β-Acetoxy-6β-(2-N,N-diisopropylaminoacetoxyacetoxy)-8,13-epoxy-1α,9α-dihydroxylabd-14-en-11-one hydrochloride monohydrate] | 0.14
C=C[C@@]1(C)CC(=O)[C@]2(O)[C@@]3(C)[C@@H](O)CCC(C)(C)[C@@H]3[C@H](OC(=O)COC(=O)CCN3CCCCC3)[C@H](OC(C)=O)[C@@]2(C)O1 | 0.086 (≈ 0.142 µM)
C=C[C@@]1(C)CC(=O)[C@]2(O)[C@@]3(C)[C@@H](O)CCC(C)(C)[C@@H]3[C@H](OC(=O)COC(=O)CN3CCCCC3)[C@H](OC(C)=O)[C@@]2(C)O1 | 0.04 (≈ 0.0674 µM)
C=C[C@@]1(C)CC(=O)[C@]2(O)[C@@]3(C)[C@@H](O)CCC(C)(C)[C@@H]3[C@H](OC(=O)COC(=O)CCN(C)C)[C@H](OC(C)=O)[C@@]2(C)O1 [2 OAc N(CH3)2] | 0.058 (≈ 0.102 µM)
C=C[C@@]1(C)CC(=O)[C@]2(O)[C@@]3(C)[C@@H](O)CCC(C)(C)[C@@H]3[C@H](OC(=O)COC(=O)CN)[C@H](O)[C@@]2(C)O1 [1 OH NH2, 8,13-epoxy-6β-(2-glycinyloxyacetoxy)-1α,7β, 9α-trihydroxylabd-14-en-11-one hydrochloride] | > 10
C=C[C@@]1(C)CC(=O)[C@]2(O)[C@@]3(C)[C@@H](O)CCC(C)(C)[C@@H]3[C@H](OC(=O)COC(=O)CN3CCN(C)CC3)[C@H](OC(C)=O)[C@@]2(C)O1 | 0.006 (≈ 0.00986 µM)
